Reference: paper PMC7502707, “Characterization and validation of a preventative therapy for hypertrophic cardiomyopathy in a murine model of the disease” (Proceedings of the National Academy of Sciences of the …, 2020)

Tests used:
[1] = tested on: myocytes isolated from wt and cTnI-G203S mice; assay: Mitochondrial membrane potential (JC-1) in myocytes isolated from treated mice; type: in vivo, mouse
Protocol: Male mice expressing the human cTnI gene encoding the human disease-causing mutation cTnI-G203S were used for all studies. […] Male mice expressing the normal human cTnI gene were used as controls (wt). Ten-week-old mice were used for in vitro studies. For in vivo studies, 20- or 30-wk-old cTnI-G203S mice were treated with 10 μM AID-TAT or AID[S]-TAT via intraperitoneal injection, 3×/wk/5 wk. In vivo dose of AID-TAT or AID[S]-TAT (10 μM) was calculated based on blood volume, equating to ∼2 mg/kg total BW. Male animal models were used to eliminate potential differences in responses due to sex. Experiments were performed in a total of 21 wt (AID[S]-TAT), 6 wt (AID-TAT), 15 cTnI-G203S (AID[S]-TAT), and 26 cTnI-G203S (AID-TAT) mice. All animals were randomly assigned to treatment groups.
Fluorescence was measured on a Hamamatsu Orca ER digital camera attached to an inverted Nikon TE2000-U microscope. Fluorescent indicator 5,5′,6,6′-tetrachloro-1,1′,3,3′-tetraethylbenzimidazolylcarbocyanine iodide was used to measure Ψm in cardiac myocytes, as previously described (JC-1, Molecular Probes) ([61]). Autofluorescence was used to measure flavoprotein oxidation in cardiac myocytes based on previously described methods ([13], [29], [62]). Responses to drugs were reported as a percentage increase from the basal average.
Cells were incubated in calcium-free HBS (supplemented with 3 mM EGTA and 200 nM JC-1) for at least 3 h prior to measuring changes in m. Sodium cyanide (NaCN, 40 mM, mitochondrial electron transport blocker) was added at the end of each experiment to collapse m, confirming that the JC-1 signal was indicative of m.
Additionally, individual 580 nm and 535 nm wavelength signals were assessed in each experiment to determine whether the fluorescent indicator was accurately measuring m. Autofluorescence was used to measure flavoprotein oxidation in cardiac myocytes based on previously described methods (ex = 480 nm, em = 535 nm, interval = 1 min, exposure = 1.5 seconds) (4, 6, 7). Carbonyl cyanide-4-(trifluoromethoxy)phenylhydrazone (FCCP, 50 μM, mitochondrial electron transport chain uncoupler) was added at the end of each experiment to increase flavoprotein oxidation confirming signal was mitochondrial in origin. Ratiometric JC-1 or flavoprotein fluorescent signals were quantified by manually tracing myocytes and subtracting an equivalent background region
Responses to drugs were reported as a percentage increase from the basal average. […]

[2] = tested on: myocytes isolated from cTnI-G203S mice; assay: Cell size of myocytes isolated from treated mice; type: in vivo, mouse; conditions: 10 μM 3×/wk/5 wk, compared to AID(S)-TAT
Protocol: Cell size was determined as previously described ([64]). Detailed methods are provided in SI Appendix.
Echocardiographic measurement of left ventricular function were performed on mice under light methoxyflurane anesthesia using an i13L probe on a Vivid 7 Dimension ultrasound system (GE Healthcare, Little Chalfont, United Kingdom) as previously described (4, 7). Echocardiographic measurements were taken on M-mode in triplicate from separate mice at a sweep speed of 200 mm/s. Each n represents the average of quantitative measurements from wt or cTnI-G203S mice for each treatment group. […] FS was calculated by the formula [(LVEDD-LVESD)/EDD] x 100.
Cell size was determined as previously described (16). […]
To measure kidney toxicity, urea and creatinine concentration was assessed using QuantiChrom Urea and Creatinine assay kits respectively (BioAssay Systems, Hayward CA). To measure liver toxicity, alanine transaminase (ALT) and aspartate transaminase (AST) concentration was measured using Alanine Transaminase and Aspartate Transaminase assay kits respectively (BioAssay Systems, Hayward CA). […]

rats = conditions: cited from earlier work

With QQLEEDLKGYLDWITQAE [AID-TAT] as the sequence, how does the “cardiac Ψm and mitochondrial metabolic activity (flavoprotein oxidation) following BayK(−)” value ([1]; myocytes from cTnI-G203S mice with established cardiomyopathy treated 10 μM 3×/wk/5 wk from 30 wk) read?
Its value is “does not restore cardiac Ψm or mitochondrial metabolic activity to wt levels”.

And the “increase in Ψm (JC-1) following BayK(−)” value ([1]; myocytes from precardiomyopathic cTnI-G203S mice treated 10 μM i.p. 3×/wk/5 wk from 20 wk)?
The value was “reduced this response to a level comparable to that observed in wt myocytes”.

What about the “echocardiographic parameters and cell size” value ([2]; 30-wk-old cTnI-G203S mice) of the same sequence?
Its value is “did not significantly improve echocardiographic parameters, or alter cell size”.

And the myocyte cell size ([2]; precardiomyopathic cTnI-G203S mice)?
The myocyte cell size was “significantly lower cell size”.

And the “contractility and cardiac hypertrophy” value (rats; following coronary artery occlusion in rats)?
Its value is “improves contractility and prevents the development of cardiac hypertrophy”.

What about the “blood pressure and cardiac myocyte calcium influx” value (rats; rat, in vivo) of the same sequence?
The value was “without decreasing blood pressure or altering cardiac myocyte calcium influx”.
